This experiment deals with Balb/c mice. As to the kind of experiment: In-vivo bioluminescent imaging after IV injection of Fluc mRNA LNP. The note with it: Example 5 LNP (DOPE 35:16:46.5:2.5), IV, 5 μg FLUC + 5 μg EPO; for Bioluminescence (IV) Liver / Bioluminescence (IV) Lung / Bioluminescence (IV) Spleen / Bioluminescence (IV) Whole Body: 4-6 hours post-dose; for Spleen: Liver Ratio: ratio of bioluminescence. The protocol:
8-9 week old female Balb/c mice are utilized for bioluminescence-based ionizable lipid screening efforts. Mice are obtained from Jackson Laboratories (JAX Stock: 000651) and allowed to acclimate for one week prior to manipulations. Animals are placed under a heat lamp for a few minutes before introducing them to a restraining chamber. The tail is wiped with alcohol pads (Fisher Scientific) and 100 μL of a lipid nanoparticle composition descrbed above containing 10 ug total mRNA (5 ug Fluc+5 ug EPO) is injected intravenously using a 29 G insulin syringe (Covidien). Any resulting bleeding is stemmed using a sterile gauze pad (Fisher Scientific) and animals are placed back into their home cage. 4-6 hours post-dose, animals are injected with 200 μL of 15 mg/mL D-Luciferin (GoldBio) and placed in an isoflurane induction chamber set to deliver 2.5% isoflurane delivered at an oxygen flow rate of 1-2 liters per min. After 5 minutes of isoflurane exposure, mice are placed in set nose cones inside the IVIS Lumina LT imager (PerkinElmer). LivingImage software is utilized for imaging. Whole body bio-luminescence is captured at auto-exposure after which animals are removed from the IVIS and placed into a CO2 chamber for euthanasia. Cardiac puncture is performed on each animal after placing it in dorsal recumbency, and blood collection is performed using a 25 G insulin syringe (BD). Blood is collected in Lithium-Heparin coated tubes (Fisher Scientific) and immediately placed on ice. Once all blood samples are collected, tubes are spun at 2000 G for 10 minutes using a tabletop centrifuge and plasma is aliquoted into individual Eppendorf tubes (Fisher Scientific) and stored at −80 C for subsequent EPO quantification. EPO levels in plasma are determined using EPO MSD kit (Meso Scale Diagnostics).
8-9 week old female Balb/c mice were utilized for bioluminescence-based ionizable lipid screening efforts. Mice were obtained from Jackson Laboratories (JAX Stock: 000651) and allowed to acclimate for one week prior to manipulations. Animals were placed under a heat lamp for a few minutes before introducing them to a restraining chamber. The tail was wiped with alcohol pads (Fisher Scientific) and, for each LNP composition descrbed above, 100 μL of a lipid nanoparticle composition descrbed above containing 10 μg total mRNA (5 μg Fluc+5 μg EPO, 5 μg Fluc+5 μg Cre, or 5 μg EGFP) was injected intravenously using a 29 G insulin syringe (Covidien).
4-6 hours post-dose, animals were injected with 200 μL of 15 mg/mL D-Luciferin (GoldBio), and placed in set nose cones inside the IVIS Lumina LT imager (PerkinElmer). LivingImage software was utilized for imaging. Whole body bio-luminescence was captured at auto-exposure after which animals are removed from the IVIS and placed into a CO2 chamber for euthanasia. Cardiac puncture was performed on each animal after placing it in dorsal recumbency, and blood collection was performed using a 25 G insulin syringe (BD). Once all blood samples were collected, tubes are spun at 2000 G for 10 minutes using a tabletop centrifuge and plasma was aliquoted into individual Eppendorf tubes (Fisher Scientific) and stored at −80° C. for subsequent EPO quantification. EPO levels in plasma were determined using EPO MSD kit (Meso Scale Diagnostics).

As for `CCCCCCCCCCC(CC)OC(=O)CCCCCN(CCCCCCCC(=O)OC(CCCCCCCC)CCCCCCCC)CCNC(=O)/C=C/C(=O)NCCN(CCCCCCCC(=O)OC(CCCCCCCC)CCCCCCCC)CCCCCC(=O)OC(CC)CCCCCCCCCC` (stereo not shown) [Compound 2378, 1-octylnonyl 8-[[6-(1-ethylundecoxy)-6-oxo-hexyl]-[2-[[(E)-4-[2-[[6-(1-ethylundecoxy)-6-oxo-hexyl]-[8-(1-octylnonoxy)-8-oxo-octyl]amino]ethylamino]-4-oxo-but-2-enoyl]amino]ethyl]amino]octanoate], the “Bioluminescence (IV) Liver” value is given as 1.6E+07, the “Bioluminescence (IV) Lung” value is 7.6E+03, the “Bioluminescence (IV) Spleen” value is recorded as 2.2E+05 and the “Bioluminescence (IV) Whole Body” value was 1.8E+08. Also, the “Spleen: Liver Ratio” value is 0.007.
On to `CCCCCCCCCCCOC(=O)CCCCCN(CCCCCCCC(=O)OC(CCCCCC)CCCCCCCC)CCNC(=O)CCC(=O)NCCN(CCCCCCCC(=O)OC(CCCCCC)CCCCCCCC)CCCCCC(=O)OCCCCCCCCCCC` (stereo not shown) [Compound 2390, 1-hexylnonyl 8-[2-[[4-[2-[[8-(1-hexylnonoxy)-8-oxo-octyl]-(6-oxo-6-undecoxy-hexyl)amino]ethylamino]-4-oxo-butanoyl]amino]ethyl-(6-oxo-6-undecoxy-hexyl)amino]octanoate], for which the “Bioluminescence (IV) Liver” value is given as 1.9E+07, the “Bioluminescence (IV) Lung” value came to 1.2E+04, the “Bioluminescence (IV) Spleen” value came out at 1.7E+06 and the “Bioluminescence (IV) Whole Body” value is 1.9E+08. Moreover, the “Spleen: Liver Ratio” value stood at 0.094.
In the case of `CCCCCCCCCCCNC(=O)CCCCCN(CCCCCCCC(=O)NC(CCCCCCCC)CCCCCCCC)CCNC(=O)CCC(=O)NCCN(CCCCCCCC(=O)NC(CCCCCCCC)CCCCCCCC)CCCCCC(=O)NCCCCCCCCCCC` [Compound 2282, N,N′-bis[2-[[8-(1-octylnonylamino)-8-oxo-octyl]-[6-oxo-6-(undecylamino)hexyl]amino]ethyl]butanediamide], the “Bioluminescence (IV) Liver” value is reported as 5.7E+07, the “Bioluminescence (IV) Lung” value came to 3.8E+04, the “Bioluminescence (IV) Spleen” value is given as 5.4E+06 and the “Bioluminescence (IV) Whole Body” value is 7.7E+08. Further, the “Spleen: Liver Ratio” value is given as 0.092.
In the case of `CCCCCCCCCOC(=O)CCCCCCCN(CCCCCCCC(=O)OC(CCCCCCCC)CCCCCCCC)CCNC(=O)CCC(=O)NCCN(CCCCCCCC(=O)OCCCCCCCCC)CCCCCCCC(=O)OC(CCCCCCCC)CCCCCCCC` [Compound 2213, nonyl 8-[2-[[4-[2-[(8-nonoxy-8-oxo-octyl)-[8-(1-octylnonoxy)-8-oxo-octyl]amino]ethylamino]-4-oxo-butanoyl]amino]ethyl-[8-(1-octylnonoxy)-8-oxo-octyl]amino]octanoate], the “Bioluminescence (IV) Liver” value is 2.2E+06, the “Bioluminescence (IV) Lung” value came to 3.7E+03, the “Bioluminescence (IV) Spleen” value was 3.5E+05 and the “Bioluminescence (IV) Whole Body” value was 1.0E+07. Besides, the “Spleen: Liver Ratio” value stood at 0.215.
In the same order, the values of `CCCCCCCCCC(C)COC(=O)CCCCCN(CCCCCCCC(=O)OC(CCCCCCCC)CCCCCCCC)CCNC(=O)CCC(=O)NCCN(CCCCCCCC(=O)OC(CCCCCCCC)CCCCCCCC)CCCCCC(=O)OCC(C)CCCCCCCCC` (stereo not shown) [Compound 2355, 1-octylnonyl 8-[[6-(2-methylundecoxy)-6-oxo-hexyl]-[2-[[4-[2-[[6-(2-methylundecoxy)-6-oxo-hexyl]-[8-(1-octylnonoxy)-8-oxo-octyl]amino]ethylamino]-4-oxo-butanoyl]amino]ethyl]amino]octanoate] are 1.8E+07, 5.9E+03, 4.6E+05, 1.4E+08 and 0.026.
As for `CCCCCC(CCCCC)CCCOC(=O)CCCCCCCN(CCCCCCCC(=O)OCCCC(CCCCC)CCCCC)CCNC(=O)CCC(=O)NCCN(CCCCCCCC(=O)OCCCC(CCCCC)CCCCC)CCCCCCCC(=O)OCCCC(CCCCC)CCCCC` [Compound 2332, bis(4-pentyl-nonyl)13,16-dioxo-9,20-bis(8-oxo-8-((4-pentylnon-yl)oxy)octyl)-9,12,17,20-tetraazaocta-cosanedioate], the “Bioluminescence (IV) Liver” value worked out at 2.8E+07, the “Bioluminescence (IV) Spleen” value is listed as 3.5E+05, the “Bioluminescence (IV) Whole Body” value was 9.8E+07 and the “Spleen: Liver Ratio” value is 0.045.
Turning to `CCCCCCCCCCCOC(=O)CCCCCN(CCCCCCCC(=O)OCCCC(CCCCC)CCCCC)CCNC(=O)/C=C/C(=O)NCCN(CCCCCCCC(=O)OCCCC(CCCCC)CCCCC)CCCCCC(=O)OCCCCCCCCCCC` [Compound 2382, 4-pentylnonyl 8-[2-[[(E)-4-oxo-4-[2-[[8-oxo-8-(4-pentylnonoxy)octyl]-(6-oxo-6-undecoxy-hexyl)amino]ethylamino]but-2-enoyl]amino]ethyl-(6-oxo-6-undecoxy-hexyl)amino]octanoate], the “Bioluminescence (IV) Liver” value worked out at 1.9E+07, the “Bioluminescence (IV) Lung” value is 2.1E+04, the “Bioluminescence (IV) Spleen” value turned out to be 2.1E+06 and the “Bioluminescence (IV) Whole Body” value is 1.5E+08. Besides, the “Spleen: Liver Ratio” value amounted to 0.104.
For `CCCCCCCCC(CCCCCCCC)OC(=O)CCCCCCCN(CCCCCCCC(=O)OC(CCCCCCCC)CCCCCCCC)CCNC(=O)CCC(=O)NCCN(CCCCCCCC(=O)OC(CCCCCCCC)CCCCCCCC)CCCCCCCC(=O)OC(CCCCCCCC)CCCCCCCC` [Compound 2275, 1-octylnonyl 8-[2-[[4-[2-[bis[8-(1-octylnonoxy)-8-oxo-octyl]amino]ethylamino]-4-oxo-butanoyl]amino]ethyl-[8-(1-octylnonoxy)-8-oxo-octyl]amino] octanoate] the same measures were 6.8E+07, 1.6E+04, 2.3E+05, 4.8E+08 and 0.003.
For `CCCCCCCCCCCOC(=O)CCCCCN(CCCCCCCC(=O)OC(CCCCCCCC)CCCCCCCC)CCN1CCN(CCN(CCCCCCCC(=O)OC(CCCCCCCC)CCCCCCCC)CCCCCC(=O)OCCCCCCCCCCC)CC1` [Compound 2248, 1-octylnonyl 8-[2-[4-[2-[[8-(1-octylnonoxy)-8-oxo-octyl]-(6-oxo-6-undecoxy-hexyl)amino]ethyl]piperazin-1-yl]ethyl-(6-oxo-6-undecoxy-hexyl)amino]octanoate] the same measures were 5.6E+07, 2.7E+04, 4.5E+05, 3.5E+08 and 0.008.
`CCCCCCCCC(CCCCCCCC)OC(=O)CCCCCCCN(CCCCCCCC(=O)OC(CCCCCCCC)CCCCCCCC)CCNC(=O)CCCC(=O)NCCN(CCCCCCCC(=O)OC(CCCCCCCC)CCCCCCCC)CCCCCCCC(=O)OC(CCCCCCCC)CCCCCCCC` [Compound 2320, 1-octylnonyl 8-[2-[[5-[2-[bis[8-(1-octylnonoxy)-8-oxo-octyl]amino]ethylamino]-5-oxo-pentanoyl]amino]ethyl-[8-(1-octylnonoxy)-8-oxo-octyl]amino]octanoate]: the “Bioluminescence (IV) Liver” value came to 8.1E+07, the “Bioluminescence (IV) Lung” value amounted to 4.0E+03, the “Bioluminescence (IV) Spleen” value worked out at 4.4E+05 and the “Bioluminescence (IV) Whole Body” value turned out to be 9.5E+08. In addition, the “Spleen: Liver Ratio” value came out at 0.007.

These data come from patent US20250051263A1, “NOVEL IONIZABLE LIPIDS AND LIPID NANOPARTICLES AND METHODS OF USING THE SAME” (Sail Biomedicines, Inc., priority 2021, published 2025).
